One experiment relates to Human PBMCs. As to the kind of experiment: CCL8 and IFNγ release from human PBMC incubated with IL-12 and IL-33. Also on record: key to Intensity of specific cytokine inhibition, IFNγ / Intensity of specific cytokine inhibition, CCL-8: −: no inhibition; +: weak; ++: moderate; +++: strong inhibition. In kind it is cell-based. Here is the method:
Human PBMCs (4×10^5 per group, Ixcells) were incubated with IL-2 (10 unit/mL, PeproTech) and various alarmin/alarmin combinations to mimic the pro-inflammatory cytokines release during allergic diseases. For IL-5 and IL-13 releases, PBMCs were incubated with IL-2 and three alarmins (all 10 ng/ml) for three days. For CCL17 release, PBMC was incubated with TSLP (10 ng/ml) for 1 day. For CCL8 and IFNγ releases, PBMCs were incubated with IL-12 (10 ng/ml, Sino Biological) and IL-33 (10 ng/ml) for 1 day. Cells were pretreated with SM17 (5 μg/ml) or IgG4 isotype control (5 μg/ml) for an hour before the addition of cytokines.
Supernatants were collected and the cytokine concentration were measured by ELISA kits (R&D systems). These established assays were used to test the potency of and SM17 and bsBps. […] Results were expressed in absolute amount in pg/ml.
SM17, three different SM17-anti-IL33 bsBps and three different SM17-anti-TSLP bsBps (all at 5 μg/ml) were added to human PBMC cultures under conditions that shall induce the release of IFNγ, CCL8, CCL17 and IL-5 as described in Example 11 above. The levels of different cytokines and chemotactic factors in supernatant obtained in induced PBMC were evaluated using standard ELISA methods.

For the next experiment, the system named is Normal human DCs. The experiment in a line: Dendritic cell potency assay, TSLP-induced CCL17 production. As to conditions: 5 μg/mL; TSLP 10 ng/mL, 5 days. Details: key: −: no inhibition; +: weak; ++: moderate; +++: strong inhibition. Type of experiment: cell-based. An excerpt: TSLP from inflamed epithelium promotes maturation of dendritic cells (DCs) to prime Th2 responses via CCL17, which induces chemotaxis of CD4+ T cells to mediate inflammation (Kitajima and Ziegler. 2013. “Cutting Edge: Identification Of The Thymic Stromal Lymphopoietin-Responsive Dendritic Cell Subset Critical For Initiation Of Type 2 Contact Hypersensitivity”. J Immunol 191: 4903-4907; Bleck et al. 2015. “Co-Expression Of Type 2 Immune Targets In Sputum-Derived Epithelial And Dendritic Cells From Asthmatic Subjects”. J Allergy Clin Immunol 136: 619-627.e5). Normal human DCs were obtained from Lonza (Bend, OR). The DCs were cultured in LGM-3 medium (Lonza). TSLP (10 ng/mL) is added into the DC cultures for 5 days in the presence of 5 μg/mL of SM17, IgG4 isotype control (Sino Biological), SM17-TSLPR bsBp (SM17 fused with TSLP receptor extracellular domain) or SM17-anti-TSLP bsBp 2 #. The supernatants are harvested and the levels of CCL17 measured by ELISA following the manufacturer's specification (R&D systems).

The next experiment deals with T1, hIL17RE (Homo sapiens, UniProt Q8NFR9).
T1 construct: purchased R&D systems
T1 sequence (Q8NFR9 24-667): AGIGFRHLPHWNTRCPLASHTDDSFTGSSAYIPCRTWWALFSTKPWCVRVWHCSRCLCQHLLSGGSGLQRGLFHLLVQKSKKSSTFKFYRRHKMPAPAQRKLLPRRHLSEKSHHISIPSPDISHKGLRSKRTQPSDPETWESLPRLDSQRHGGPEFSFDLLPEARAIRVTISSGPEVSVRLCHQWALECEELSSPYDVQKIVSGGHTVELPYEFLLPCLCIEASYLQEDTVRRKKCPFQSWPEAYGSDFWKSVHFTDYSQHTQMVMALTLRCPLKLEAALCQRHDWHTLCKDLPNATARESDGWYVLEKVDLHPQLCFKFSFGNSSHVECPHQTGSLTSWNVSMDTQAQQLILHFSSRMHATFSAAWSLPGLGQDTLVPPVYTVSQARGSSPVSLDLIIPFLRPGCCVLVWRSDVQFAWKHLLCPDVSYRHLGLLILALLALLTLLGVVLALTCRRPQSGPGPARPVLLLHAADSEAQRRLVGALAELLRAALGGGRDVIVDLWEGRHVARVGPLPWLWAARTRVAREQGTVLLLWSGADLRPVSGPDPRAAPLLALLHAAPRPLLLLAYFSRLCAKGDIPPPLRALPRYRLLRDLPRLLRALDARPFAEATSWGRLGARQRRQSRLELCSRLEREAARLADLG
The experiment in a line: ELISA, SM17 specificity against IL-17 receptor subunits (IL17RE). In kind it is binding. The following applies: 0.4 to 0.00064 μg/mL. Here is the method: A standard ELISA method was used to determine the specificity of SM17 against other human IL17 receptor subunits. Similarly, serially diluted SM17 at different concentrations (final concentrations at 0.4, 0.08, 0.016, 0.0032 and 0.00064 μg/m, respectively) was added to the wells of ELISA plates coated either with human IL-17 receptor subunits A, C, D and E (IL17RA, IL17RC, IL17RD, and IL17RE) (R&D systems).
(In an ELISA, binding on a coated surface is turned into a signal by an enzyme label.)

Another experiment deals with cynomolgus IL17RB. The experiment in a line: ELISA, SM17 binding to coated IL-17RB protein (cynomolgus). The following applies: two wells. Here is the method: A standard enzyme-linked immunosorbent assay (ELISA) method was used to determine the species specificity of SM17 against IL-17RB proteins. Briefly, IL-17RB proteins from human, mouse, cynomolgus or rhesus monkey (R&D systems, Minneapolis, MN) were diluted to 2.5 μg/ml in PBS and 50 μl of IL-17RB proteins were added to each well of ELISA strip. The strips were sealed with parafilm and incubated at 4° C. overnight for coating.
On the next day, strips were washed thrice with washing buffer (0.05% Tween 20 in PBS) and blocked with 100 μl per well with blocking buffer (3% BSA in PBS) for 2 hours RT before serially diluted SM17 (at a final concentration of 10, 2, 0.4, 0.08, 0.016, 0.0032, and 0.00064 μg/ml, respectively) was added.

Setting [1] is: SM17 5 μg/ml, IL-12 and IL-33 10 ng/ml, 1 day, vs IgG4 isotype control.

Where “and” joins values, the source holds several entries; their conditions need not be identical. Equal entries are not always repeated.

Consider “SM17: humanized anti-IL17RB monoclonal antibody, human IgG4 isotype; HC SEQ ID NO: 32, LC SEQ ID NO: 33”, for which the “Intensity of specific cytokine inhibition, CCL-8” value with Human PBMCs (5 μg/ml, human PBMC) is on record as “−”. Moreover, the “Intensity of specific cytokine inhibition, IFNγ” value with Human PBMCs (5 μg/ml, human PBMC) is reported as “−”. The “CCL8 release (in words)” value in the experiment on Human PBMCs (setting [1]) is given as “no inhibitory effects”. Moreover, the “IFNγ release (in words)” value in the experiment with Human PBMCs (setting [1]) is “no inhibitory effects”. Moreover, in the experiment with Normal human DCs, the “Potency, inhibition of CCL17 release on dendritic cells” value is “−”. The “binding of SM17 to IL17RE (in words)” value with hIL17RE is on record as “No obvious bindings”. Moreover, the “OD 450 nm Absorption, cynomolgus IL17RB” value in the experiment with cynomolgus IL17RB (SM17 0.016 μg/mL) is 0.34; in the experiment with cynomolgus IL17RB (SM17 0.08 μg/mL) it was 0.72 and 0.74; in the experiment with cynomolgus IL17RB (SM17 0.4 μg/mL), 0.89 and 0.97; with cynomolgus IL17RB (SM17 2 μg/mL), 1.13 and 1.12; in the experiment with cynomolgus IL17RB (SM17 10 μg/mL) it was 1.33 and 1.37.
